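Method: 48-hour compound exposure of cells in 96-well plates, five concentrations, linear interpolation of endpoints. GI50 is the concentration that inhibits growth by half. TGI: concentration producing complete growth inhibition.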
Experiments:
Assay in all cases: DTP human tumour cell line panel, 48 h
SN12C renal = system: SN12C renal
EKVX NSCLC = system: EKVX NSCLC
SNB-19 CNS = system: SNB-19 CNS
OVCAR-8 ovarian = system: OVCAR-8 ovarian
DU-145 prostate = system: DU-145 prostate
HOP-62 NSCLC = system: HOP-62 NSCLC
RXF 393 renal = system: RXF 393 renal
ACHN renal = system: ACHN renal
SF-539 CNS = system: SF-539 CNS
T-47D breast = system: T-47D breast
OVCAR-5 ovarian = system: OVCAR-5 ovarian
TK-10 renal = system: TK-10 renal
CAKI-1 renal = system: CAKI-1 renal
UO-31 renal = system: UO-31 renal
NCI/ADR-RES ovarian = system: NCI/ADR-RES ovarian
HCT-116 colon = system: HCT-116 colon
OVCAR-4 ovarian = system: OVCAR-4 ovarian
HL-60(TB) leukemia = system: HL-60(TB) leukemia
COLO 205 colon = system: COLO 205 colon
SNB-75 CNS = system: SNB-75 CNS
MALME-3M melanoma = system: MALME-3M melanoma
MDA-MB-435 = system: MDA-MB-435
SR leukemia = system: SR leukemia
NCI-H23 lung = system: NCI-H23 lung
HCC-2998 colon = system: HCC-2998 colon
A498 renal = system: A498 renal
786-0 renal = system: 786-0 renal
CCRF-CEM leukemia = system: CCRF-CEM leukemia
SK-MEL-28 melanoma = system: SK-MEL-28 melanoma
HS 578T breast = system: HS 578T breast
LOX IMVI melanoma = system: LOX IMVI melanoma
SF-268 CNS = system: SF-268 CNS
SW-620 colon = system: SW-620 colon
NCI-H226 lung = system: NCI-H226 lung
K-562 leukemia = system: K-562 leukemia
SK-MEL-5 melanoma = system: SK-MEL-5 melanoma
HOP-92 NSCLC = system: HOP-92 NSCLC
NCI-H460 lung = system: NCI-H460 lung
MOLT-4 leukemia = system: MOLT-4 leukemia
RPMI-8226 leukemia = system: RPMI-8226 leukemia
SK-OV-3 ovarian = system: SK-OV-3 ovarian
KM12 colon = system: KM12 colon
UACC-257 melanoma = system: UACC-257 melanoma
MCF7 breast = system: MCF7 breast
NCI-H522 lung = system: NCI-H522 lung
HT29 colon = system: HT29 colon
M14 melanoma = system: M14 melanoma
HCT-15 colon = system: HCT-15 colon
SF-295 CNS = system: SF-295 CNS
OVCAR-3 ovarian = system: OVCAR-3 ovarian
SK-MEL-2 melanoma = system: SK-MEL-2 melanoma
BT-549 breast = system: BT-549 breast
A549 NSCLC = system: A549 NSCLC
PC-3 prostate = system: PC-3 prostate
U251 CNS = system: U251 CNS
MDA-MB-231 breast = system: MDA-MB-231 breast
IGROV1 ovarian = system: IGROV1 ovarian
UACC-62 melanoma = system: UACC-62 melanoma

## CC[C@H](Nc1cc(C)nc(N)n1)c1nc2cccc(NCc3ccc(C(=O)NO)cc3)c2c(=O)n1-c1ccccc1
SN12C renal
  GI50: 1.96 µM
  TGI: 4.72 µM
EKVX NSCLC
  GI50: 3.32 µM
  TGI: 12.2 µM
SNB-19 CNS
  GI50: 1.83 µM
  TGI: 4.77 µM
OVCAR-8 ovarian
  GI50: 2.04 µM
  TGI: 6.13 µM
DU-145 prostate
  GI50: 2.99 µM
  TGI: 10.6 µM
HOP-62 NSCLC
  GI50: 2.05 µM
  TGI: 4.47 µM
RXF 393 renal
  GI50: 1.48 µM
  TGI: 2.9 µM
ACHN renal
  GI50: 10.5 µM
  TGI: 22.7 µM
SF-539 CNS
  GI50: 1.67 µM
  TGI: 3.26 µM
T-47D breast
  GI50: 1.54 µM
  TGI: 6.13 µM
OVCAR-5 ovarian
  GI50: 2.4 µM
  TGI: 7.59 µM
TK-10 renal
  GI50: 4.28 µM
  TGI: 16.9 µM
CAKI-1 renal
  GI50: 3.33 µM
  TGI: 14.2 µM
UO-31 renal
  GI50: 10.2 µM
  TGI: 24.2 µM
NCI/ADR-RES ovarian
  GI50: 77.2 µM
  TGI: > 100 µM
HCT-116 colon
  GI50: 1.55 µM
  TGI: 3.72 µM
OVCAR-4 ovarian
  GI50: 1.61 µM
  TGI: 4.12 µM
HL-60(TB) leukemia
  GI50: 2.59 µM
  TGI: 6.1 µM
COLO 205 colon
  GI50: 1.56 µM
  TGI: 3.79 µM
SNB-75 CNS
  GI50: 1.12 µM
  TGI: 3.5 µM
MALME-3M melanoma
  GI50: 1.39 µM
  TGI: 2.93 µM
MDA-MB-435
  GI50: 1.64 µM
  TGI: 3.12 µM
SR leukemia
  GI50: 0.679 µM
  TGI: 13 µM
NCI-H23 lung
  GI50: 2.01 µM
  TGI: 4.72 µM
HCC-2998 colon
  GI50: 1.82 µM
  TGI: 3.34 µM
A498 renal
  GI50: 1.51 µM
  TGI: 3.33 µM
786-0 renal
  GI50: 1.85 µM
  TGI: 3.79 µM
CCRF-CEM leukemia
  GI50: 1.62 µM
  TGI: 11.4 µM
SK-MEL-28 melanoma
  GI50: 1.83 µM
  TGI: 3.9 µM
HS 578T breast
  GI50: 2.36 µM
  TGI: 9.97 µM
LOX IMVI melanoma
  GI50: 1.78 µM
  TGI: 3.29 µM
SF-268 CNS
  GI50: 1.82 µM
  TGI: 3.49 µM
SW-620 colon
  GI50: 1.61 µM
  TGI: 4.19 µM
NCI-H226 lung
  GI50: 2.86 µM
  TGI: 14.9 µM
K-562 leukemia
  GI50: 2.56 µM
  TGI: 10 µM
SK-MEL-5 melanoma
  GI50: 1.96 µM
  TGI: 4.41 µM
HOP-92 NSCLC
  GI50: 1.33 µM
  TGI: 3.54 µM
NCI-H460 lung
  GI50: 1.94 µM
  TGI: 5.68 µM
MOLT-4 leukemia
  GI50: 2.52 µM
  TGI: 10.2 µM
RPMI-8226 leukemia
  GI50: 2.08 µM
  TGI: 7.4 µM
SK-OV-3 ovarian
  GI50: 2.52 µM
  TGI: 8.88 µM
KM12 colon
  GI50: 1.69 µM
  TGI: 3.31 µM
UACC-257 melanoma
  GI50: 2.17 µM
  TGI: 7.41 µM
MCF7 breast
  GI50: 1.98 µM
  TGI: 6.39 µM
NCI-H522 lung
  GI50: 1.06 µM
  TGI: 3.19 µM
HT29 colon
  GI50: 2.69 µM
  TGI: 10.4 µM
M14 melanoma
  GI50: 1.85 µM
  TGI: 3.88 µM
HCT-15 colon
  GI50: 10.4 µM
  TGI: 25.1 µM
SF-295 CNS
  GI50: 1.66 µM
  TGI: 3.48 µM
OVCAR-3 ovarian
  GI50: 1.86 µM
  TGI: 4.39 µM
SK-MEL-2 melanoma
  GI50: 2.58 µM
  TGI: 7.37 µM
BT-549 breast
  GI50: 2.44 µM
  TGI: 6.57 µM
A549 NSCLC
  GI50: 3.79 µM
  TGI: 16.4 µM
PC-3 prostate
  GI50: 1.83 µM
  TGI: 4.41 µM
U251 CNS
  GI50: 1.47 µM
  TGI: 3.03 µM
MDA-MB-231 breast
  GI50: 1.62 µM
  TGI: 3.16 µM

## Cc1ccc2c(c1)c(C1=C(c3cn(C)c4ccccc34)C(=O)NC1=O)cn2C
SN12C renal
  GI50: 3.12 µM
  TGI: 16.8 µM
SNB-19 CNS
  GI50: 8.15 µM
  TGI: > 25 µM
OVCAR-8 ovarian
  GI50: 5.3 µM
  TGI: > 25 µM
DU-145 prostate
  GI50: 6.73 µM
  TGI: 22.2 µM
IGROV1 ovarian
  GI50: 5.23 µM
  TGI: > 14.9 µM
HOP-62 NSCLC
  GI50: 3.17 µM
  TGI: > 25 µM
RXF 393 renal
  GI50: 1.54 µM
  TGI: 4.79 µM
ACHN renal
  GI50: 3.09 µM
  TGI: > 23.4 µM
SF-539 CNS
  GI50: 1.11 µM
  TGI: 5.58 µM
T-47D breast
  GI50: 4 µM
  TGI: 20 µM
OVCAR-5 ovarian
  GI50: 10.8 µM
  TGI: > 25 µM
TK-10 renal
  GI50: 8.67 µM
  TGI: > 25 µM
CAKI-1 renal
  GI50: 3.63 µM
  TGI: > 25 µM
UO-31 renal
  GI50: 2.77 µM
  TGI: 13.8 µM
NCI/ADR-RES ovarian
  GI50: 3.23 µM
  TGI: > 25 µM
HCT-116 colon
  GI50: 1.36 µM
  TGI: 10.2 µM
OVCAR-4 ovarian
  GI50: 3.79 µM
  TGI: > 21.8 µM
HL-60(TB) leukemia
  GI50: 1.33 µM
  TGI: 11.3 µM
COLO 205 colon
  GI50: 1.49 µM
  TGI: 7.18 µM
SNB-75 CNS
  GI50: 0.723 µM
  TGI: > 17.8 µM
MALME-3M melanoma
  GI50: 4.4 µM
  TGI: > 21.4 µM
MDA-MB-435
  GI50: 0.674 µM
  TGI: > 11.2 µM
UACC-62 melanoma
  GI50: 1.35 µM
  TGI: 9.79 µM
SR leukemia
  GI50: 0.966 µM
  TGI: 9.81 µM
NCI-H23 lung
  GI50: 4.9 µM
  TGI: > 25 µM
HCC-2998 colon
  GI50: 9.25 µM
  TGI: > 25 µM
A498 renal
  GI50: 1.34 µM
  TGI: 6.14 µM
786-0 renal
  GI50: 5.21 µM
  TGI: > 22.8 µM
CCRF-CEM leukemia
  GI50: 1.32 µM
  TGI: 13.3 µM
SK-MEL-28 melanoma
  GI50: 4 µM
  TGI: > 22.5 µM
HS 578T breast
  GI50: 0.595 µM
  TGI: 3.55 µM
LOX IMVI melanoma
  GI50: 2.93 µM
  TGI: > 23.4 µM
SF-268 CNS
  GI50: 3.09 µM
  TGI: > 25 µM
SW-620 colon
  GI50: 1.16 µM
  TGI: > 25 µM
NCI-H226 lung
  GI50: 3.57 µM
  TGI: 13 µM
K-562 leukemia
  GI50: 1.53 µM
  TGI: > 25 µM
SK-MEL-5 melanoma
  GI50: 1.48 µM
  TGI: 5.07 µM
HOP-92 NSCLC
  GI50: 5.96 µM
  TGI: > 22.1 µM
NCI-H460 lung
  GI50: 1.26 µM
  TGI: 9.01 µM
MOLT-4 leukemia
  GI50: 2.56 µM
  TGI: 13.9 µM
RPMI-8226 leukemia
  GI50: 2.19 µM
  TGI: 9.18 µM
SK-OV-3 ovarian
  GI50: 2.72 µM
  TGI: > 25 µM
KM12 colon
  GI50: 1.92 µM
  TGI: 9.09 µM
UACC-257 melanoma
  GI50: 3.39 µM
  TGI: > 24.2 µM
MCF7 breast
  GI50: 1.08 µM
  TGI: > 16.3 µM
NCI-H522 lung
  GI50: 0.927 µM
  TGI: 12.2 µM
HT29 colon
  GI50: 1.01 µM
  TGI: 6.77 µM
M14 melanoma
  GI50: 2.07 µM
  TGI: > 25 µM
HCT-15 colon
  GI50: 1.39 µM
  TGI: > 25 µM
SF-295 CNS
  GI50: 1.4 µM
  TGI: > 15.7 µM
OVCAR-3 ovarian
  GI50: 0.904 µM
  TGI: 3.44 µM
SK-MEL-2 melanoma
  GI50: 1.42 µM
  TGI: 6.81 µM
BT-549 breast
  GI50: 3.65 µM
  TGI: 11.1 µM
A549 NSCLC
  GI50: 1.97 µM
  TGI: > 25 µM
PC-3 prostate
  GI50: 1.75 µM
  TGI: > 25 µM
U251 CNS
  GI50: 1.52 µM
  TGI: > 25 µM
MDA-MB-231 breast
  GI50: 6.93 µM
  TGI: > 25 µM
